Measurements as given in PMC11876601 (Molecular Systems Biology, 2025).
Where “and” joins values, the source holds several entries; their conditions need not be identical. Equal entries are not always repeated. Where two headings read alike, the source gives them in different places.

Assays:
FLT4 = tested on: FLT4; design: method as in Reinecke et al. (2023); conditions: FLT4, 5 cell line mix lysate, Kinobeads ε, ref Reinecke et al. (2023), cited from earlier work
GSKB = biological target: T1, GSKB (Homo sapiens, UniProt P49841); assay: Kinobeads competition pulldown in AsPC-1 lysate; type: binding; conditions: read-out: KDapp
T1 construct: endogenous in cells; host or cells: AsPC-1 lysate
Description: (§1) This was followed by incubation with Kinobeads ε (17.5 µl of settled beads) for 30 min at 4 °C to enrich kinases. […] Enriched proteins were reduced with 50 mM DTT in 8 M urea, 40 mM Tris-HCl, pH 7.4 for 30 min at room temperature, and alkylated with 55 mM chloroacetamide. After reducing the urea concentration to 1–2 M, proteins were digested with trypsin at 37 °C for 16 h. Subsequently, eluted peptides were desalted using SepPak tC18 µElution plates (Waters), freeze-dried by vacuum centrifugation, and stored at −20 °C.
(§2) For LC-MS/MS, dried peptides were reconstituted in 0.1% formic acid and analyzed on a Dionex Ultimate3000 nano HPLC (Thermo Scientific) coupled to an Orbitrap Fusion Tribrid mass spectrometer (Thermo Scientific), which was run in data-dependent mode. Peptides were first delivered to a trap column (100 µm × 2 cm, packed in-house with Reprosil-Gold C18 ODS-3 5 µm resin, Dr. Maisch, Ammerbuch) and subsequently washed with solvent A0 (0.1% formic acid in HPLC grade water) at 5 µl/min for 10 min. […] For MS2, up to 12 peptide precursors were isolated (isolation width of 1.2 Th) and subjected to HCD fragmentation using 30% normalized collision energy. […] The duration of dynamic exclusion was set to 30 s.
(§3) Oxidized methionine and N-terminal acetylation were set as variable modification, and cysteine carbamidomethylation was set as fixed modification. Label-free quantification (LFQ) and match-between-runs were enabled. All searches were performed with 1% PSM and protein FDR.
(§4) Proteins were filtered by potential contaminants, reversed hits and proteins identified only by site. Residual binding of proteins was calculated from LFQ intensities as the ratio between drug doses and vehicle. […] Only kinases quantified with at least 4 unique peptides in the vehicle experiment were considered. Potential targets were further curated through manual inspection of dose-dependent reduction in MS/MS and unique peptide counts.

PDO UME012 = assay: PDO viability assay (CellTiter-Glo, 72 h); type: cell-based, human; design: Curve bottom: scale not given here;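 for Curve top: fraction of plate-wise median vehicle signal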
Description: Primary patient-derived PDAC organoid (PDO) experiments were performed in the laboratories of Prof. Maximilian Reichert (University Hospital of the TU Munich, Germany, PDO set 1: B250, B535, B678) and Prof. Jens T. Siveke (University Hospital Essen, Germany; PDO set 2: UME008, UME012, UME051, UME053, UME060, UME061). PDOs were generated from surgical resection, EUS-guided fine needle biopsy (EUS-FNB), or ascites (Appendix Table S2). Surgical specimens were first minced with a sterile scalpel and subsequently washed with Anti-Anti solution and washing medium (PDO set 1), or vice versa (PDO set 2; Appendix Table S3). Biopsy samples were directly washed with an Anti-Anti solution and washing medium. Samples were digested using 1 ml of digestion medium at 37 °C while shaking, and the enzymatic reaction was stopped by adding 15 ml of washing medium (Appendix Table S3). If samples of PDO set 1 were blood-stained, tissue pellets were first incubated with ACK lysing buffer/red blood cells lysis buffer (Thermo Fisher Scientific) for 5 min and then digested using TrypLE (Thermo Fisher Scientific). The reversed procedure was applied for blood-stained samples of PDO set 2. For PDO generation from ascites, the material was first spun down at 500 × g for 5 min. Then, washing medium was added and the suspension was centrifuged at 300 × g for 5 min. If the pellet was blood-stained, ACK lysis buffer was added and incubated at room temperature.
For viability assays in PDOs, confluent organoids were removed from medium, and Matrigel was dissolved by adding 200 μl (PDO set 1) or 2 ml (PDO set 2) of Cell Recovery Solution (Corning), and additionally 500 μl of DPBS (PDO set 1 only). Samples were transferred into a falcon and incubated on ice for 30 min, followed by centrifugation at 300 × g at 4 °C for 5 min (after adding 10 ml washing medium for PDO set 2). Subsequently, TrypLE Express Enzyme (Thermo Fisher) was added to cell pellets and incubated for 2 × 5 min at 37 °C. The enzymatic reaction was quenched by DPBS (PDO set 1) or washing medium (PDO set 2), and samples were washed by centrifugation at 300 × g at 4 °C for 5 min. Five hundred cells/well were seeded in 384-well plates (Corning) in 50 μl of PDO medium containing 10% Matrigel. To allow PDO generation, cells were incubated for 4 days at 37 °C and 5% CO2. […] Experiments were pipetted manually (PDO set 1) or automatically using a TECAN D300e Digital Dispenser (HP; PDO set 2). Treatments were performed in eight replicates, except for PDO PPES045 (quadruplicates). After 72 h, cell viability was measured using the CellTiter-Glo Luminescent Cell Viability Assay (Promega) diluted 1:5 in the final volume of the well. After 20 min of incubation at room temperature under gentle shaking, the acquisition was performed in the microplate reader VantaSTAR (BMG Labtech) using 3000 gain for the amplification measurement of a detected signal (PDO set 1) or the Spark Multimode microplate reader (TECAN) at 800 ms integration time (PDO set 2).

CSNK2A2 = biological target: T2, CSNK2A2 (Homo sapiens, UniProt P19784); assay: Kinobeads competition pulldown in AsPC-1 lysate; type: binding
T2 construct: endogenous in cells; host or cells: AsPC-1 lysate
Description: as §1, §2, §3, §4

AAK1 = biological target: T3, AAK1 (Homo sapiens, UniProt Q2M2I8); assay: Kinobeads competition pulldown in AsPC-1 lysate; type: binding
T3 construct: endogenous in cells; host or cells: AsPC-1 lysate
Description: as §1, §2, §3, §4

BMP2K = biological target: T4, BMP2K (Homo sapiens, UniProt Q9NSY1); assay: Kinobeads competition pulldown in AsPC-1 lysate; type: binding
T4 construct: endogenous in cells; host or cells: AsPC-1 lysate
Description: as §1, §2, §3, §4

[1] = PDO UME012, GEM + Elimusertib (ATRi) dose1, per replicate
[2] = PDO UME012, GEM + Elimusertib (ATRi) dose2, per replicate
[3] = PDO UME012, GEM + Elimusertib (ATRi) dose3, per replicate
[4] = PDO UME012, GEM alone, per replicate
[5] = Kinobeads residual binding curve

Q: What does the source list for `COc1cc(N2CCC(N3CCN(C)CC3)CC2)ccc1Nc1ncc(Cl)c(Nc2ccccc2P(C)(C)=O)n1` [Brigatinib]?
A: EC50 (FLT4): 369 nM; pKDapp (FLT4): 6.43; Kd (FLT4; read-out: KDapp): 369 nM

Q: With `Nc1nn2cc(F)cnc2c1C(=O)Nc1cncc(F)c1N1CCC(C(=O)N2CCN(C3COC3)CC2)CC1` [Gartisertib] as the compound, how does the Kd (GSKB) read?
A: < 10 nM

Q: Which results are given for `Nc1ccn([C@@H]2O[C@H](CO)[C@@H](O)C2(F)F)c(=O)n1` [GEM, Gemcitabine]?
A: EC50 (PDO UME012; Homo sapiens, PDO UME012, GEM + Elimusertib (ATRi) dose1, mean of replicates, read-out: EC50 mean): 12.6 nM; EC50 (PDO UME012; Homo sapiens, PDO UME012, GEM + Elimusertib (ATRi) dose1, per replicate, read-out: EC50): 11.3 nM; EC50 (PDO UME012; Homo sapiens, PDO UME012, GEM + Elimusertib (ATRi) dose1, per replicate, read-out: pEC50 (converted)): 11.2 nM; EC50 (PDO UME012; Homo sapiens, PDO UME012, GEM + Elimusertib (ATRi) dose2, mean of replicates, read-out: EC50 mean): 3.06 nM; EC50 (PDO UME012; Homo sapiens, PDO UME012, GEM + Elimusertib (ATRi) dose2, per replicate, read-out: EC50): 3.37 nM; EC50 (PDO UME012; Homo sapiens, PDO UME012, GEM + Elimusertib (ATRi) dose2, per replicate, read-out: pEC50 (converted)): 3.39 nM; EC50 (PDO UME012; Homo sapiens, PDO UME012, GEM + Elimusertib (ATRi) dose3, mean of replicates, read-out: EC50 mean): 2.42 nM; EC50 (PDO UME012; Homo sapiens, PDO UME012, GEM alone, mean of replicates, read-out: EC50 mean): 29.1 nM; EC50 (PDO UME012; Homo sapiens, PDO UME012, GEM alone, read-out: EC50 mean): 29.1 nM; Curve bottom (PDO UME012; [1]): 11.29 and 15.69 and 14.76 and 8.69; Curve slope (PDO UME012; [1]): 0.09 and 0.08 and 0.07; Curve top (PDO UME012; [1]): 1.40 and 1.29 and 1.32 and 1.45; pEC50 (PDO UME012; [1]): 7.80 and 7.83 and 8.06; EC50 (PDO UME012; PDO UME012, GEM + Elimusertib (ATRi) dose1, per replicate, read-out: EC50): 15.7 nM and 14.8 nM and 8.69 nM; Curve bottom (PDO UME012; [2]): 3.37 and 3.54 and 2.28; Curve slope (PDO UME012; [2]): 0.0214 and 0.0222 and 0.0167; Curve top (PDO UME012; [2]): 1.13 and 1.28 and 1.51; pEC50 (PDO UME012; [2]): 8.45 and 8.64; EC50 (PDO UME012; PDO UME012, GEM + Elimusertib (ATRi) dose2, per replicate, read-out: EC50): 3.54 nM and 2.28 nM; Curve bottom (PDO UME012; [3]): 3.57 and 1.25 and 2.45; Curve slope (PDO UME012; [3]): 0.02 and 0.05 and 0.0372; Curve top (PDO UME012; [3]): 1.09 and 0.99 and 1.02; pEC50 (PDO UME012; [3]): 8.45 and 8.90 and 8.61; EC50 (PDO UME012; PDO UME012, GEM + Elimusertib (ATRi) dose3, per replicate, read-out: EC50): 3.57 nM and 1.25 nM and 2.45 nM; Curve slope (PDO UME012; [4]): 0.62 and 0.42 and 0.70 and 0.52; Curve top (PDO UME012; [4]): 1.21 and 1.18 and 1.06 and 1.19; pEC50 (PDO UME012; [4]): 8.15 and 7.29 and 7.52 and 7.56; EC50 (PDO UME012; PDO UME012, GEM alone, per replicate, read-out: EC50): 7.11 nM and 51.3 nM and 30.5 nM and 27.6 nM

Q: Which Kd (CSNK2A2; AsPC-1 lysate, read-out: KDapp) does the source give for `CNCc1ccc(-c2cc(-c3nc(-c4ccc(S(=O)(=O)C(C)C)cc4)cnc3N)on2)cc1` [Berzosertib] here?
A: 219 nM

Q: What about the EC50 (CSNK2A2; [5]) of the same compound?
A: 406 nM

Q: What about the Kd (AAK1; AsPC-1 lysate, read-out: KDapp) of the same compound?
A: 19.3 nM

Q: What about the EC50 (AAK1; [5]) of the same compound?
A: 36.7 nM

Q: What about the Kd (BMP2K; AsPC-1 lysate, read-out: KDapp) of the same compound?
A: 19.9 nM

Q: And the EC50 (BMP2K; [5])?
A: 35.7 nM
